# According to US20230061319A1, “METHODS OF TREATING TUMORS” (CoImmune, Inc., priority 2020, published 2023):
# System: CD19^+ B cells
# Experiment: Flow cytometry of CD38+ and LAP+ B cells in stimulated PBMCs from mRCC patients
# Description: T cells were identified using APC-H7 Mouse Anti-Human CD3 antibody (clone SK7, BD Biosciences). T cell subsets were identified using Pacific Blue Mouse Anti-Human CD4 antibody (clone RPA-T4, BD Biosciences) and PerCP-Cy5.5 Mouse Anti-Human CD8 antibody (clone SK1, BD Biosciences). Activated T cells expressing the IL-2 alpha receptor were identified using Brilliant Violet 605 Mouse Anti-Human CD25 antibody (clone 2A3, BD Biosciences). The T cell costimulatory receptor that binds CD80 and CD86 was identified using PE Mouse Anti-Human CD28 antibody (clone CD28.2, BD Biosciences). B cells were identified using APC-eFluor 780 Mouse Anti-Human CD19 antibody (clone HIB19, ThermoFisher Scientific). Terminally differentiated B cells were identified using APC Mouse Anti-Human CD38 antibody. Proliferating cells were identified using Brilliant Violet Mouse Anti-Ki-67 antibody (clone B56, BD Biosciences). […] The multifunctional cytokine Human Transforming Growth Factor beta-1 was identified using PerCP-Cy5.5 Mouse anti-Human LAP (TGF-β1) antibody (clone TW4-2F8, Biolegend). 5 mL tubes containing cultured cells were centrifuged at 400 g for 5 minutes after which supernatant was decanted. Pelleted cells were washed by adding 2 mL of Stain Buffer containing fetal bovine serum and ≤0.09% sodium azide (BD Biosciences), briefly vortexed and centrifuged. Stain Buffer was decanted from tubes and pelleted samples were then surfaced stained with monoclonal antibody, briefly vortexed and incubated at room temperature for 15 minutes in the dark. Samples were then washed with 2 mL of PBS, centrifuged and resuspended in 1 mL of PBS. 2 µL of LIVE/DEAD Fixable Aqua Dead Cell dye (ThermoFisher Scientific) was added to each sample and incubated at 37° C. for 15 minutes. Samples were washed and centrifuged twice with 2 mL of Stain Buffer. Decanted and pelleted cells were vortexed and then fixed with 1 mL of diluted Transcription Factor Fix/Perm Buffer (BD Biosciences) for 15 minutes at room temperature. 1 mL of 1x Transcription Factor Perm/Wash Buffer (BD Biosciences) was added to each sample, briefly vortexed and centrifuged. Perm/Wash buffer was decanted from samples and washed again with 2 mL of Perm/Wash buffer. Perm/Wash Buffer was decanted from tubes and pelleted samples were then stained for intracellular antigens with monoclonal antibody, briefly vortexed and incubated at room temperature for 15 minutes in the dark. After incubation, samples were washed twice with Perm/Wash Buffer and resuspended in 350 µL of Stain Buffer. […]
# Frozen patient PBMC were thawed, counted, and washed in PBS. […] The cells were counted and set up in culture at 1x10^6 cells/mL in X-VIVO 15 media. […]
smiles,measurement,setting,value
CO[C@H]1C[C@@H]2CC[C@@H](C)[C@@](O)(O2)C(=O)C(=O)N2CCCC[C@H]2C(=O)O[C@H]([C@H](C)C[C@@H]2CC[C@@H](OCCO)[C@H](OC)C2)CC(=O)[C@H](C)/C=C(\C)[C@@H](O)[C@@H](OC)C(=O)[C@H](C)C[C@H](C)/C=C/C=C/C=C/1C [everolimus],frequency of CD19+ LAP+ B cells,stimulated cultures with everolimus,decrease
same,frequency of LAP+/Ig+ CD38+ B cells,"stimulated with everolimus, sub-gating of LAP+ B cells (3.89% without)",0.11%
same,frequency of LAP+CD38+Ig- B cells,"stimulated with everolimus, sub-gating of LAP+ B cells (4.04% without)",2.63%
same,frequency of LAP+/Ig+ B cells,"stimulated with everolimus, sub-gating of LAP+ B cells (61.5% without)",6.14%
